In patent US20040029777A1, “Pharmaceutical preparation for taste masking” (TAISHO PHARMACEUTICAL CO., LTD., priority 2002, published 2004):

Key:
[1] = In vitro dissolution test, USP apparatus 2 (paddle); type: physicochemical; settings: distilled water (FIG. 16)
Procedure: Complexes that corresponded to 150 mg of ibuprofen were subjected to dissolution in a USP (United States Pharmacopoeia) dissolution apparatus 2 (Paddle-type) with several kinds of solutions (900 ml). This dissolution test was conducted at 37° C., and a paddle rotation speed of 50 rpm was maintained. A UV detector was used to measure the absorbance of dissolution liquids at regular intervals of up to 120 minutes.
The complexes containing 150 mg of ibuprofen were subjected to dissolution testing using a USP dissolution apparatus 2 (Paddle-type) with several kinds of solutions (900 ml). This dissolution test was conducted at 37° C., at a paddle rotation speed of 50 rpm. A UV detector was used to measure the absorbance of dissolution liquids at regular intervals up to 120 minutes.

[2] = Thermographic analysis (TGA), change in weight at set temperature; type: physicochemical
Procedure: Samples weighing approximately 10 mg were placed in a platinum pan and the change in weight at a set temperature (100° C., 150° C.) was measured using Perkin-Elmer Thermal Analysis Equipment.

Structure (SMILES): CC(C)Cc1ccc(C(C)C(=O)O)cc1 (stereo not drawn) [ibuprofen, Ibuprofen]
- dissolution profile saturation [1]: ~40%
- TGA change in weight (sublimation) ([2]; 100° C.): showed sublimation
- TGA change in weight (sublimation) ([2]; 150° C.): showed sublimation
